Patent US20110070174A1, “Benzoyl Peroxide and Sunscreen Agent Combination” (PruGen IP Holdings, Inc., priority 2009, published 2011)

Legend:
Assay type in all cases: physicochemical
[1] = Stability Study 1: BPO/sunscreen mixture, one month at room temperature; conditions: for 1 MONTH-RT (content) / 1 MONTH-RT (percent of initial, in brackets): Study 1, 1 month room temperature; for % INITIAL (percent of initial, in brackets) / % INITIAL (content): Study 1, initial; for % INITIAL (content): in BPO/sunscreen mixture
Description: (§1) The stability provided by using the above formula and mixing process has heretofore been unmatched.

[2] = Stability Study 2: BPO/sunscreen mixture, one month at room temperature; conditions: for 1 MONTH-RT (content) / 1 MONTH-RT (percent of initial, in brackets): Study 2, 1 month room temperature; for % INITIAL (percent of initial, in brackets) / % INITIAL (content): Study 2, initial; for % INITIAL (content): in BPO/sunscreen mixture
Description: as §1

[3] = Stability Study 3: BPO/sunscreen mixture, one month at room temperature; conditions: for 1 MONTH-RT (content) / 1 MONTH-RT (percent of initial, in brackets): Study 3, 1 month room temperature; for % INITIAL (percent of initial, in brackets) / % INITIAL (content): Study 3, initial; for % INITIAL (content): in BPO/sunscreen mixture
Description: as §1

[4] = Stability Study 4: BPO/sunscreen mixture, one month at room temperature; conditions: for 1 MONTH-RT (content) / 1 MONTH-RT (percent of initial, in brackets): Study 4, 1 month room temperature; for % INITIAL (percent of initial, in brackets) / % INITIAL (content): Study 4, initial; for % INITIAL (content): in BPO/sunscreen mixture
Description: as §1

[5] = Stability of sunscreen base and benzoyl peroxide each before mixing; conditions: each agent separately, one-month repeatable studies
Description: as §1

[6] = Multiple one-month room temperature studies after mixing the agents together; conditions: BPO at various percentages
Description: as §1

SMILES | 1 MONTH-RT (content) [1] | 1 MONTH-RT (percent of initial, in brackets) [1] | % INITIAL (percent of initial, in brackets) [1] | % INITIAL (content) [1] | 1 MONTH-RT (content) [2] | 1 MONTH-RT (percent of initial, in brackets) [2] | % INITIAL (percent of initial, in brackets) [2] | % INITIAL (content) [2] | 1 MONTH-RT (content) [3] | 1 MONTH-RT (percent of initial, in brackets) [3] | % INITIAL (percent of initial, in brackets) [3] | % INITIAL (content) [3] | 1 MONTH-RT (content) [4] | 1 MONTH-RT (percent of initial, in brackets) [4] | % INITIAL (percent of initial, in brackets) [4] | % INITIAL (content) [4] | stability of each agent [5] | potency after mixing [6]
O=C(OOC(=O)c1ccccc1)c1ccccc1 [BPO, Benzoyl peroxide] | 7.76% | 108% | 100% | 7.16% | 8.07% | 94% | 100% | 8.55% | 6.48% | 107% | 100% | 6.02% | 7.76% | 108% | 100% | 7.16% | stable for at least one year | remained at full potency
COc1ccc(C(=O)CC(=O)c2ccc(C(C)(C)C)cc2)cc1 [Avobenzone] |  |  |  |  | 2.78% | 86% | 100% | 3.23% | 2.69% | 91.5% | 100% | 2.94% |  |  |  |  |  | 
CCCCC(CC)COC(=O)C(C#N)=C(c1ccccc1)c1ccccc1 (stereo not shown) [Octocrylene] | 6.42% | 101% | 100% | 6.33% |  |  |  |  |  |  |  |  | 6.42% | 101% | 100% | 6.33% |  | 
